Experimental data as given in ChEMBL document CHEMBL5096200, “A short survey of dengue protease inhibitor development in the past 6 years (2015-2020) with an emphasis on similarities between DENV and SARS-CoV-2 proteases” (Bioorg Med Chem, 2021).
Positions of bridges follow the written chain, without caps; N, C: chain ends. Non-standard residues stand in square brackets, D forms with d. Residues, ends and D or L forms follow the SMILES beside them. NBnAla = C[C@H](NCc1ccccc1)C(=O)O

Assays:
[1] = biological target: T1, Genome polyprotein (dengue virus type 2, UniProt P29990); test: Binding affinity to DENV2 NS2B/NS3 protease assessed as inhibition constant
[2] = biological target: T1, Genome polyprotein; test: Inhibition of DENV2 NS2B-NS3 protease
[3] = Binding affinity to wildtype DENV3 protease assessed as inhibition constant using [Ac-[D-EDANS]KRRSWP[K-DABCYL]-AMIDE] as substrate by FRET-based enzymatic assay; set-up: species or system dengue virus type 3
[4] = Inhibition of DENV2 pro; set-up: species or system dengue virus type 2
[5] = system: dengue virus type 2; test: Antiviral activity against Dengue virus 2 infected in african green monkey Vero cells assessed as reduction in viral titer; assay type: functional, organism-based
[6] = biological target: T1, Genome polyprotein; test: Inhibition of DENV2 NS2B-NS3 protease using Boc-Gly-Arg-Arg-7-amino-4-methylcoumarin as substrate incubated for 10 mins by fluorometric assay
[7] = biological target: T1, Genome polyprotein; test: Inhibition of DENV2 NS2B-NS3 protease using Boc-Gly-Arg-Arg-MCA as substrate by fluorescence assay
[8] = biological target: T1, Genome polyprotein; test: Inhibition of DENV2 NS2B-NS3 protease using […] as substrate preincubated for 10 mins followed by substrate addition and incubated for 60 mins by fluorescence spectroscopy assay
[9] = Inhibition of West Nile Virus NS2B (residues 1393 to 1440 )/NS3pro (residues 1476 to 1687) protease expressed in Escherichia coli BL21 (DE3) using e Pyr- RTKR-AMC as substrate preincubated for 30 mins followed by substrate addition and incubated for 90 mins by fluorescence spectrophotometry assay
[10] = system: dengue virus type 2; test: Antiviral activity against DENV2; assay type: functional, organism-based

T1 sequence (P29990 1346-1475 limits assumed): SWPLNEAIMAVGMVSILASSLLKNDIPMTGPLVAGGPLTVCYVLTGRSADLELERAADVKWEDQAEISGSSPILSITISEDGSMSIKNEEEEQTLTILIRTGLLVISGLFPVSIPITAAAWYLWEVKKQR
T1 sequence (P29990 1476-2093 limits assumed): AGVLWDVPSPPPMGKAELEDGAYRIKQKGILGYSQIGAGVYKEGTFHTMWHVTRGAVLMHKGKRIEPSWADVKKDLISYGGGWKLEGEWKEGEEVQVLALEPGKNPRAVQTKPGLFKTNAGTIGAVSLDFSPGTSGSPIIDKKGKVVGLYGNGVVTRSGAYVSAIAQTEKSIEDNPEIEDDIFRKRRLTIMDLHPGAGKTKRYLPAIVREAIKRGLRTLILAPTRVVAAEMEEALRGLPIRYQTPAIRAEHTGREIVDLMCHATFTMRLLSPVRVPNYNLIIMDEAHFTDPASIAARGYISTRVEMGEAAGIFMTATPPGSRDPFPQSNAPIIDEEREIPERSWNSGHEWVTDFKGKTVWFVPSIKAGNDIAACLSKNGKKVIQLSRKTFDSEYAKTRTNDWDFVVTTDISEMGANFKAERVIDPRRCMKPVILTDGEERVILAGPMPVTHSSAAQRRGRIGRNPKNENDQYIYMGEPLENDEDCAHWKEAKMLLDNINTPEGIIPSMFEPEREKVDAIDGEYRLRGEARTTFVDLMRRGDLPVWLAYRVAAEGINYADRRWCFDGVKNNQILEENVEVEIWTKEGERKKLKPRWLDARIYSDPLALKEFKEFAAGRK

With N=C(N)Nc1ccc(OC(=O)c2ccc(NC(=N)N)cc2)cc1 the Ki [1] was 2 µM and the Ki [2] was 2 µM.

CC[C@H](C)[C@@H]1NC(=O)[C@H](CCCNC(=N)N)NC(=O)[C@H](C)NC(=O)[C@H](CCCNC(=N)N)NC(=O)[C@@H](NC(=O)[C@@H]2CCCN2)CSSC[C@@H](C(=O)N[C@@H](CCCNC(=N)N)C(=O)O)NC(=O)CNC(=O)CNC1=O (H-PCRARIGGCR-OH; disulfide 2-9) showed a Ki [3] of 29.7 µM.

Compound N=C(N)NCCC[C@@H](NC1NC(=O)C(N[C@H](CCCCN)C(=O)O)NC(=O)C(N2CCC[C@@H]2C(=O)O)NC(=O)C(N[C@H](Cc2ccccc2)C(=O)O)NC(=O)C(N[C@H](CO)C(=O)O)NC(=O)C(N[C@@H](Cc2ccccc2)C(=O)O)NC(=O)C(N[C@@H](CO)C(=O)O)NC(=O)[C@H](CCCCN)NC1=O)C(=O)O (some centres not stated) has an IC50 [4] of 0.95 µM.

Compound CC[C@H](C)[C@@H]1NC(=O)[C@H](Cc2c[nH]c3ccccc23)NC(=O)[C@H](C)NC(=O)[C@H](CCCNC(=N)N)NC(=O)[C@@H](NC(=O)[C@@H]2CCCN2)CSSC[C@@H](C(=O)N[C@H](C)C(=O)O)NC(=O)CNC(=O)CNC(=O)[C@H](Cc2ccc(O)cc2)NC1=O has a Ki [3] of 145 µM.

CC[C@H](C)[C@@H]1NC(=O)[C@H](CCCNC(=N)N)NC(=O)[C@H](C(C)C)NC(=O)[C@H](CCCNC(=N)N)NC(=O)[C@@H](NC(=O)[C@@H]2CCCN2)CSSC[C@@H](C(=O)N[C@H](C)C(=O)O)NC(=O)CNC(=O)CNC(=O)[C@H](CC(=O)O)NC1=O showed a Ki [3] of 35.8 µM.

For CC[C@H](C)[C@@H]1NC(=O)[C@H](CCCNC(=N)N)NC(=O)[C@H](C)NC(=O)[C@H](CCCNC(=N)N)NC(=O)[C@@H](NC(=O)c2ccccc2)CSSC[C@@H](C(=O)N[C@H](C)C(=O)O)NC(=O)CNC(=O)CNC(=O)[C@H](Cc2ccc(O)cc2)NC1=O, the Ki [3] was 33.2 µM.

Work on CC[C@H](C)[C@@H]1NC(=O)[C@H](CCCNC(=N)N)NC(=O)[C@H](C)NC(=O)[C@H](CCCCN)NC(=O)[C@@H](NC(=O)[C@@H]2CCCN2)CSSC[C@@H](C(=O)N[C@@H](CCCNC(=N)N)C(=O)O)NC(=O)CNC(=O)CNC(=O)[C@H](Cc2ccc(O)cc2)NC(=O)CNC(=O)CNC(=O)[C@H]([C@@H](C)CC)NC1=O (H-PCKARIIGGYGGCR-OH; disulfide 2-13) yielded a Ki [3] of 232 µM.

In the case of C[C@H](NCc1ccccc1)C(=O)N[C@@H](CCCCN)C(=O)N[C@@H](CCCNC(=N)N)C(=O)N[C@@H](CCCNC(=N)N)C(=O)O (H-[NBnAla]KRR-OH), the Ki [1] is reported as 5.3 µM and the Ki [2] is reported as 5.3 µM.

With CC[C@H](C)[C@@H]1NC(=O)[C@H](CCCNC(=N)N)NC(=O)[C@H](C)NC(=O)[C@H](CCCNC(=N)N)NC(=O)[C@@H](NC(=O)[C@@H]2CCCN2)CSSC[C@@H](C(=O)N[C@@H](C)C(=O)O)NC(=O)CNC(=O)CNC1=O (H-PCRARIGGCA-OH; disulfide 2-9) the Ki [3] was 780 µM.

In the case of O=C(Nc1nc2ccc([N+](=O)[O-])cc2s1)c1ccccc1Sc1ccc(C(F)(F)F)cc1, the EC50 [5] is reported as 0.1 µM and the IC50 [6] is reported as 22 µM.

With N=C(N)NCCC[C@H](NC(=O)c1nccs1)C(=O)N[C@@H](CCCCN)C(=O)N[C@@H](C(N)=O)c1ccc(OCc2ccc(C(F)(F)F)cc2)cc1 the IC50 [4] was 0.018 µM.

For CC[C@H](C)[C@@H]1NC(=O)[C@H](CCCNC(=N)N)NC(=O)[C@H](C)NC(=O)[C@H](CCCCN)NC(=O)[C@@H](NC(=O)[C@@H]2CCCN2)CSSC[C@@H](C(=O)N[C@@H](C)C(=O)O)NC(=O)CNC(=O)CNC(=O)[C@H](Cc2ccc(O)cc2)NC1=O (H-PCKARIYGGCA-OH; disulfide 2-10), the Ki [3] was 14.5 µM.

With O=[N+]([O-])c1ccc(N=Nc2ccc(O)c3ccccc23)c([N+](=O)[O-])c1 the Ki [1] was 15 µM and the Ki [2] was 15 µM.

CCCCC1C(C(=O)N(C)OC)C(c2ccccc2)CCN1C(=O)OC(C)(C)C (configuration not stated) gave an IC50 [7] of 257 µM.

With N=C(N)NCCC[C@@H]1NC(=O)[C@H](CCCCN)NC(=O)CNC(=O)[C@@H](N)CSSC[C@@H](C(=O)O)NC(=O)[C@H](CO)NC(=O)[C@H](CCCCN)NC1=O (H-CGKRKSC-OH; disulfide 1-7) the Ki [1] was 1.4 µM and the Ki [2] was 1.4 µM.

Compound COc1ccc(C(=O)CN2C/C(=C/c3ccc([N+](=O)[O-])cc3)C(=O)/C(=C\c3ccc([N+](=O)[O-])cc3)C2)cc1 has an IC50 [8] of 16.2 µM.

For CC[C@H](C)[C@@H]1NC(=O)[C@H](CCCNC(=N)N)NC(=O)[C@H](C(C)C)NC(=O)[C@H](CCCNC(=N)N)NC(=O)[C@@H](NC(=O)[C@@H]2CCCN2)CSSC[C@@H](C(=O)N[C@H](C)C(=O)O)NC(=O)CNC(=O)CNC(=O)[C@H](Cc2ccc(O)cc2)NC1=O, the Ki [3] was 25.6 µM.

With COc1ccc(S(=O)(=O)n2nc(OC(=O)c3ccccc3)cc2N)cc1 the IC50 [9] was 0.105 µM.

CC[C@H](C)[C@@H]1NC(=O)[C@H](CCCNC(=N)N)NC(=O)[C@H](C)NC(=O)[C@H](CCCNC(=N)N)NC(=O)[C@@H](NC(=O)[C@@H]2CCCN2)CSSC[C@@H](C(=O)N[C@@H](C)C(=O)O)NC(=O)CNC(=O)CNC(=O)[C@H](Cc2ccc(O)cc2)NC1=O (H-PCRARIYGGCA-OH; disulfide 2-10) showed a Ki [3] of 966 µM.

CC[C@H](C)[C@@H]1NC(=O)[C@H](CCCNC(=N)N)NC(=O)[C@H](C)NC(=O)[C@H](CCCNC(=N)N)NC(=O)[C@@H](N)CSSC[C@@H](C(=O)N[C@@H](C)C(=O)O)NC(=O)CNC(=O)CNC(=O)[C@H](Cc2ccc(O)cc2)NC(=O)CNC1=O (H-CRARIGYGGCA-OH; disulfide 1-10) showed a Ki [3] of 145 µM.

O=C1OC2(c3ccccc31)c1cc(I)c(O)c(I)c1OC1C(I)=C(O)C(I)=CC12 (configuration not stated) showed an EC50 [10] of 1.2 µM.

Compound CC[C@H](C)[C@@H]1NC(=O)[C@H](CCCNC(=N)N)NC(=O)[C@H](C)NC(=O)[C@H](CCCNC(=N)N)NC(=O)[C@@H](NC(=O)[C@@H]2CCCN2)CSSC[C@@H](C(=O)N[C@H](C)C(=O)O)NC(=O)CNC(=O)CNC(=O)[C@H](CC(=O)O)NC1=O has a Ki [3] of 69.3 µM.
